Data published in paper PMC6695355, “Alanine Scanning Studies of the Antimicrobial Peptide Aurein 1.2” (Probiotics and Antimicrobial Proteins, 2018).
Converted amounts (≈) assume the structure as drawn. Where a SMILES comes first, the peptide text is derived from it.

How the values were obtained:
[1] = test system: S. aureus ATCC 25923 biofilm formation; assay type: cell-based, Staphylococcus aureus; conditions: ATCC 25923, 24 h
Summary of the method: (§1)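 MICs came from CLSI broth microdilution, 1–512 μg/mL, with S. aureus at 0.5 × 10^5 CFU/mL in MHB for 18 h and C. albicans at 2 × 10^3 CFU/mL in RPMI-1640 for 24 h, both at 37 °C. For MBEC, 24 h biofilms were treated for 24 h; for MBIC, compound was added with the inoculum for 24 h. Resazurin was read after 1 h, with endpoint ≤10% reduction versus controls.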

[2] = test system: S. aureus ATCC 25923 biofilm; assay type: cell-based, Staphylococcus aureus; conditions: ATCC 25923, 24 h
Summary of the method: as §1

[3] = test system: S. aureus ATCC 25923; assay type: cell-based, Staphylococcus aureus; conditions: ATCC 25923, 18 h
Summary of the method: as §1

[4] = test system: E. faecalis PCM 2673 biofilm formation; assay type: cell-based, Enterococcus faecalis; conditions: 24 h
Summary of the method: (§2)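 Broth microdilution per CLSI, 1–512 μg/mL; bacteria 0.5 × 10^5 CFU/mL in MHB, 37 °C 18 h; C. albicans 2 × 10^3 CFU/mL in RPMI-1640, 24 h; MIC = lowest concentration visibly inhibiting growth. MBEC: 24-h biofilms, PBS-rinsed, compound 24 h at 37 °C, resazurin read after 1 h. MBIC: compound with inoculum 24 h, then resazurin 1 h; cut-off ≤10% reduction versus controls.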

[5] = test system: E. faecalis PCM 2673 biofilm; assay type: cell-based, Enterococcus faecalis; conditions: 24 h
Summary of the method: as §2

[6] = test system: E. faecalis PCM 2673; assay type: cell-based, Enterococcus faecalis; conditions: PCM 2673, 18 h
Summary of the method: as §2

[7] = test system: E. coli ATCC 25922 biofilm formation; assay type: cell-based, Escherichia coli; conditions: ATCC 25922, 24 h
Summary of the method: as §2

[8] = test system: E. coli ATCC 25922 biofilm; assay type: cell-based, Escherichia coli; conditions: ATCC 25922, 24 h
Summary of the method: as §2

[9] = test system: E. coli ATCC 25922; assay type: cell-based, Escherichia coli; conditions: ATCC 25922, 18 h
Summary of the method: as §2

[10] = test system: P. aeruginosa ATCC 9027 biofilm formation; assay type: cell-based, Pseudomonas aeruginosa; conditions: ATCC 9027, 24 h
Summary of the method: as §2

[11] = test system: P. aeruginosa ATCC 9027 biofilm; assay type: cell-based, Pseudomonas aeruginosa; conditions: ATCC 9027, 24 h
Summary of the method: as §2

[12] = test system: P. aeruginosa ATCC 9027; assay type: cell-based, Pseudomonas aeruginosa; conditions: ATCC 9027, 18 h
Summary of the method: as §2

[13] = test system: C. albicans ATCC 10231 biofilm formation; assay type: cell-based, Candida albicans; conditions: ATCC 10231, 24 h
Summary of the method: as §1

[14] = test system: C. albicans ATCC 10231 biofilm; assay type: cell-based, Candida albicans; conditions: ATCC 10231, 24 h
Summary of the method: as §1

[15] = test system: C. albicans ATCC 10231; assay type: cell-based, Candida albicans; conditions: ATCC 10231, 24 h
Summary of the method: as §1

[16] = test system: human red blood cells (RBCs); assay: Hemolysis assay; assay type: cell-based; conditions: red cells of human, 1 h
Summary of the method: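 Fresh EDTA-anticoagulated human erythrocytes were PBS-washed and used at 4% (v/v) with peptide at 1–256 μg/mL in PBS for 1 h at 37 °C. Hemoglobin release in the supernatant was read at 540 nm. PBS set 0% and 1% Triton X-100 set 100% hemolysis; run in triplicate.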

[17] = in vitro; assay type: in vitro ADME; conditions: bovine, serum
Summary of the method: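 Peptides incubated in 25% (v/v) fetal bovine serum in PBS at 37 °C, quenched with ice-cold acetonitrile at t0 and 6 h. Intact peptide quantified by RP-HPLC-MS in selected ion recording mode; % remaining = peak area at 6 h / peak area at t0.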

| MIC, S. aureus ATCC 25923 [3] [µg/mL] | MIC, E. faecalis PCM 2673 [6] [µg/mL] | MIC, E. coli ATCC 25922 [9] [µg/mL] | MIC, P. aeruginosa ATCC 9027 [12] [µg/mL] | MIC, C. albicans ATCC 10231 [15] [µg/mL] | SMILES | MBIC, S. aureus ATCC 25923 [1] [µg/mL] | MBEC, S. aureus ATCC 25923 [2] [µg/mL] | MBIC, E. faecalis PCM 2673 [4] [µg/mL] | MBEC, E. faecalis PCM 2673 [5] [µg/mL] | MBIC, E. coli ATCC 25922 [7] [µg/mL] | MBEC, E. coli ATCC 25922 [8] [µg/mL] | MBIC, P. aeruginosa ATCC 9027 [10] [µg/mL] | MBEC, P. aeruginosa ATCC 9027 [11] [µg/mL] | MBIC, C. albicans ATCC 10231 [13] [µg/mL] | MBEC, C. albicans ATCC 10231 [14] [µg/mL] | Percentage of hemolysis at 1 μg/mL [16] [%] | Percentage of hemolysis at 2 μg/mL [16] [%] | Percentage of hemolysis at 4 μg/mL [16] [%] | Percentage of hemolysis at 8 μg/mL [16] [%] | Percentage of hemolysis at 16 μg/mL [16] [%] | other results |
| --- | --- | --- | --- | --- | --- | --- | --- | --- | --- | --- | --- | --- | --- | --- | --- | --- | --- | --- | --- | --- | --- |
| > 512 | 512 (≈ 356 µM) | 256 (≈ 178 µM) | 512 (≈ 356 µM) | 256 (≈ 178 µM) | CC[C@H](C)[C@H](NC(=O)[C@H](CCCCN)NC(=O)[C@H](CCCCN)NC(=O)[C@@H](NC(=O)[C@@H](NC(=O)[C@H](CC(=O)O)NC(=O)[C@H](Cc1ccccc1)NC(=O)[C@H](C)NC(=O)CN)[C@@H](C)CC)[C@@H](C)CC)C(=O)N[C@@H](C)C(=O)N[C@@H](CCC(=O)O)C(=O)N[C@@H](CO)C(=O)N[C@@H](Cc1ccccc1)C(N)=O [Peptide L2A] (H-GAFDIIKKIAESF-NH2) | > 512 | > 512 | > 512 | > 512 | 512 | 512 | > 512 | > 512 | 8 | > 512 | 0.3 | 0.6 | 0.4 | 0.2 | 0.0 | Percentage of hemolysis at 32 μg/mL [16]: 0.0%; Percentage of hemolysis at 64 μg/mL [16]: 0.0%; Percentage of hemolysis at 128 μg/mL [16]: 0.0%; Percentage of hemolysis at 256 μg/mL [16]: 0.0%; remaining at 6 h, 0.125 mg/mL [17]: 6% |
| 128 (≈ 86.5 µM) | 64 (≈ 43.2 µM) | 64 (≈ 43.2 µM) | 256 (≈ 173 µM) | 32 (≈ 21.6 µM) | CC[C@H](C)[C@H](NC(=O)[C@H](CCCCN)NC(=O)[C@H](CCCCN)NC(=O)[C@@H](NC(=O)[C@@H](NC(=O)[C@H](CC(=O)O)NC(=O)[C@H](Cc1ccccc1)NC(=O)[C@H](CC(C)C)NC(=O)CN)[C@@H](C)CC)[C@@H](C)CC)C(=O)N[C@@H](C)C(=O)N[C@@H](CCC(=O)O)C(=O)N[C@@H](CO)C(=O)N[C@@H](Cc1ccccc1)C(N)=O [aurein 1.2] (H-GLFDIIKKIAESF-NH2) | 128 | 128 | 128 | > 512 | 128 | 64 | 128 | 512 | 2 | 256 | 0.0 | 0.1 | 0.0 | 0.0 | 0.4 | Percentage of hemolysis at 32 μg/mL [16]: 0.5%; Percentage of hemolysis at 64 μg/mL [16]: 4.5%; Percentage of hemolysis at 128 μg/mL [16]: 19.2%; Percentage of hemolysis at 256 μg/mL [16]: 58.8%; remaining at 6 h, 0.125 mg/mL [17]: 65% |
